Measured values taken from patent US11976083B2, “Inhibitors of peptidylarginine deiminases” (Gilead Sciences, Inc., priority 2020, dated 2024).

molecular target: T1, human PAD4 (Homo sapiens, UniProt Q9UM07); assay: In vitro PAD4 BAEE biochemical assay; conditions: BAEE substrate 3 mM, 5 nM PAD4, 2 mM calcium chloride; geometric mean of multiple experiments
T1 construct: human PAD4 (NM_012387), A2-P663, was PCR amplified; His-SUMO (N, cleaved yes); made in house; host or cells: E. coli BL21(DE3)
Method in brief: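 Recombinant human PAD4 (5 nM final) with 2 mM CaCl2 was preincubated with compound 30 min at 25 °C in MOPS buffer pH 7.6, then reacted with 3 mM BAEE for 2 h at 25 °C. After EDTA stop, released ammonia was detected by o-phthalaldehyde/DTT fluorescence (ex 405/em 535 nm); IC50 from four-parameter fit, geometric mean.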

T1 sequence (Q9UM07 2-663): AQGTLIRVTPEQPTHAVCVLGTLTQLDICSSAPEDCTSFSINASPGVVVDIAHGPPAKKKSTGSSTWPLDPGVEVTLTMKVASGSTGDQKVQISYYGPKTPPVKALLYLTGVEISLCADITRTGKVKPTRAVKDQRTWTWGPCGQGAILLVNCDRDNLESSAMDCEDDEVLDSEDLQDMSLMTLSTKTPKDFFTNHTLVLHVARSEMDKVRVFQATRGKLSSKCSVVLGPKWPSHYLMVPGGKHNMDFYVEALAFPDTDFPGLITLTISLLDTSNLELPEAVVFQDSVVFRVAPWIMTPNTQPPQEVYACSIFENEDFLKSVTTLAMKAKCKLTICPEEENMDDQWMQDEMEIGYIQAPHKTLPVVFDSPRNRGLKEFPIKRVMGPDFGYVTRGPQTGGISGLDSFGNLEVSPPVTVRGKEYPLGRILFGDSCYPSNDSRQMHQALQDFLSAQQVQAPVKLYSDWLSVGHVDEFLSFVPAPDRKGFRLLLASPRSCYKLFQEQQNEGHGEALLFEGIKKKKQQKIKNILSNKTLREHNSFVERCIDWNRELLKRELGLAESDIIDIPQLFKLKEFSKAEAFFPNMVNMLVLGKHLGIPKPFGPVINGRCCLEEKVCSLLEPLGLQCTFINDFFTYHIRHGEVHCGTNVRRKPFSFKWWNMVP

Row | SMILES | IC50
1 | C[C@H]1NC(=O)[C@@H]2C[C@H]2CCCCCn2c(-c3nc4cc(C(=O)N[C@H]5CNCC[C@@H]5F)c(F)cc4n3[C@@H]3C[C@H]3C(F)F)cc3ccc1nc32 [Example 415, 1-[(1~{R},2~{R})-2-(difluoromethyl)cyclopropyl]-6-fluoro-~ {N}-[(3~{S},4~{S})-4-fluoro-3-piperidyl]-2-[(2~{R},5~{R},7~{R})-2-methyl-4-oxo-3,13,19-triazatetracyclo[11.5.2.0^{5,7}.0^{16,20}]icosa-1(19),14,16(20),17-tetraen-14-yl]benzimidazole-5-carboxamide] | 52 nM
2 | C[C@@H]1C[C@H]1n1c(-c2cc3ccc4nc3n2CCCCC[C@@H]2C[C@H]2C(=O)N[C@@H]4C)nc2cc(C(=O)N[C@H]3CNCC[C@@H]3F)c(F)cc21 [Example 416, 6-fluoro-~{N}-[(3~{S},4~{S})-4-fluoro-3-piperidyl]-1-[(1~{R},2~{R})-2-methylcyclopropyl]-2-[(2~{R},5~{R},7~{R})-2-methyl-4-oxo-3,13,19-triazatetracyclo[11.5.2.0^{5,7}.0^{16,20}]icosa-1(19),14,16(20),17-tetraen-14-yl]benzimidazole-5-carboxamide] | 34 nM
3 | COCCn1c(-c2cc3ccc4nc3n2CCCCCCC(C)(C)C(=O)N[C@@H]4C)nc2cc(C(=O)N[C@H]3CNCC[C@@H]3F)c(F)cc21 [Example 417, 6-fluoro-~{N}-[(3~{S},4~{S})-4-fluoro-3-piperidyl]-1-(2-methoxyethyl)-2-[(11~{R})-8,8,11-trimethyl-9-oxo-1,10,19-triazatricyclo[10.5.2.0^{15,18}]nonadeca-12(19),13,15(18),16-tetraen-17-yl]benzimidazole-5-carboxamide] | 62 nM
4 | C[C@H]1NC(=O)C(C)(C)CCCCCCn2c(-c3nc4cc(C(=O)N[C@H]5CNCC[C@@H]5F)c(F)cc4n3CC(F)F)cc3ccc1nc32 [Example 418, 1-(2,2-difluoroethyl)-6-fluoro-~{N}-[(3~{S},4~{S})-4-fluoro-3-piperidyl]-2-[(11~{R})-8,8,11-trimethyl-9-oxo-1,10,19-triazatricyclo[10.5.2.0^{15,18}]nonadeca-12(19),13,15(18),16-tetraen-17-yl]benzimidazole-5-carboxamide] | 122 nM
5 | C[C@H]1NC(=O)C(C)(C)CCCCCCn2c(-c3nc4cc(C(=O)N[C@H]5CNCC[C@@H]5F)c(F)cc4n3CC(F)(F)F)cc3ccc1nc32 [Example 419, 6-fluoro-~{N}-[(3~{S},4~{S})-4-fluoro-3-piperidyl]-1-(2,2,2-trifluoroethyl)-2-[(11~{R})-8,8,11-trimethyl-9-oxo-1,10,19-triazatricyclo[10.5.2.0^{15,18}]nonadeca-12(19),13,15(18),16-tetraen-17-yl]benzimidazole-5-carboxamide] | 370 nM
6 | C[C@H]1NC(=O)C(C)(C)CCCCCCn2c(-c3nc4cc(C(=O)N[C@H]5CNCC[C@@H]5F)c(F)cc4n3C3CCC3)cc3ccc1nc32 [Example 420, 1-cyclobutyl-6-fluoro-˜{N}-[(3˜{S},4˜{S})-4-fluoro-3-piperidyl]-2-[(11˜{R})-8,8,11-trimethyl-9-oxo-1,10,19-triazatricyclo[10.5.2.0^{15,18}]nonadeca-12(19),13,15(18),16-tetraen-17-yl]benzimidazole-5-carboxamide] | 184 nM
7 | CC(C)n1c(-c2cc3ccc4nc3n2CCCCCCC(C)(C)C(=O)N[C@@H]4C)nc2cc(C(=O)N[C@H]3CNCC[C@@H]3F)c(F)cc21 [Example 421, 6-fluoro-~{N}-[(3~{S),4~{S})-4-fluoro-3-piperidyl]-1-isopropyl-2-[(11~{R})-8,8,11-trimethyl-9-oxo-1,10,19-triazatricyclo[10.5.2.0^{15,18}]nonadeca-12(19),13,15(18),16-tetraen-17-yl]benzimidazole-5-carboxamide] | 304 nM
8 | COCCn1c(-c2cc3ccc4nc3n2CCCCC[C@@H]2C[C@H]2C(=O)N[C@@H]4C)nc2cc(C(=O)N[C@H]3CNCC[C@@H]3F)c(F)cc21 [Example 422, 6-fluoro-~{N}-[(4~{S})-4-fluoro-3-piperidyl]-1-(2-methoxyethyl)-2-[(2~{R},5~{R},7~{R})-2-methyl-4-oxo-3,13,19-triazatetracyclo[11.5.2.0^{5,7}.0^{16,20}]icosa-1(18),14,16,19-tetraen-14-yl]benzimidazole-5-carboxamide] | 39 nM
9 | CCn1c(-c2cc3ccc4nc3n2CCCCCCC(C)(C)C(=O)N[C@@H]4C)nc2cc(C(=O)N[C@H]3CNCC[C@@H]3F)c(F)cc21 [Example 423, 1-ethyl-6-fluoro-~{N}-[(3~{S},4~{S})-4-fluoro-3-piperidyl]-2-[(11~{R})-8,8,11-trimethyl-9-oxo-1,10,19-triazatricyclo[10.5.2.0^{15,18}]nonadeca-12(19),13,15(18),16-tetraen-17-yl]benzimidazole-5-carboxamide] | 64 nM
10 | CC(C)OCCn1c(-c2cc3ccc4nc3n2CCCCCCC(C)(C)C(=O)N[C@@H]4C)nc2cc(C(=O)N[C@H]3CNCC[C@@H]3F)c(F)cc21 [Example 424, 6-fluoro-~{N}-[(3~{S},4~{S})-4-fluoro-3-piperidyl]-1-(2-isopropoxyethyl)-2-[(11~{R})-8,8,11-trimethyl-9-oxo-1,10,19-triazatricyclo[10.5.2.0^{15,18}]nonadeca-12(19),13,15(18),16-tetraen-17-yl]benzimidazole-5-carboxamide] | 111 nM
11 | CCOCCn1c(-c2cc3ccc4nc3n2CCCCCCC(C)(C)C(=O)N[C@@H]4C)nc2cc(C(=O)N[C@H]3CNCC[C@@H]3F)c(F)cc21 [Example 425, 1-(2-ethoxyethyl)-6-fluoro-~{N}-[(3~{S},4~{S})-4-fluoro-3-piperidyl]-2-[(11~{R})-8,8,11-trimethyl-9-oxo-1,10,19-triazatricyclo[10.5.2.0^{15,18}]nonadeca-12(19),13,15(18),16-tetraen-17-yl]benzimidazole-5-carboxamide] | 104 nM
12 | C[C@H]1NC(=O)[C@@H]2C[C@H]2CCCCCn2c(-c3nc4cc(C(=O)N[C@H]5CNCC[C@@H]5F)c(F)cc4n3CCC#N)cc3ccc1nc32 [Example 426, 1-(2-cyanoethyl)-6-fluoro-~{N}-[(3~{S},4~{S})-4-fluoro-3-piperidyl]-2-[(2~{R},5~{R},7~{R})-2-methyl-4-oxo-3,13,19-triazatetracyclo[11.5.2.0^{5,7}.0^{16,20}]icosa-1(19),14,16(20),17-tetraen-14-yl]benzimidazole-5-carboxamide] | 25 nM
13 | COCCOCCn1c(-c2cc3ccc4nc3n2CCCCC[C@@H]2C[C@H]2C(=O)N[C@@H]4C)nc2cc(C(=O)N[C@H]3CNCC[C@@H]3F)c(F)cc21 [Example 427, 6-fluoro-~{N}-[(3~{S),4~{S})-4-fluoro-3-piperidyl]-1-[2-(2-methoxyethoxy)ethyl]-2-[(2~{R},5~{R},7~{R})-2-methyl-4-oxo-3,13,19-triazatetracyclo[11.5.2.0^{5,7}.0^{16,20}]icosa-1(19),14,16(20),17-tetraen-14-yl]benzimidazole-5-carboxamide] | 54 nM
14 | C[C@H]1NC(=O)[C@@H]2C[C@H]2CCCCCn2c(-c3nc4cc(C(=O)N[C@H]5CNCC[C@@H]5F)c(F)cc4n3CCC(N)=O)cc3ccc1nc32 [Example 428, 1-(3-amino-3-oxo-propyl)-6-fluoro-~ {N}-[(3~{S},4~{S})-4-fluoro-3-piperidyl]-2-[(2~{R},5~{R},7~{R})-2-methyl-4-oxo-3,13,19-triazatetracyclo[11.5.2.0^{5,7}.0^{16,20}]icosa-1(19),14,16(20),17-tetraen-14-yl]benzimidazole-5-carboxamide] | 29 nM
15 | C[C@H]1NC(=O)[C@@H]2C[C@H]2CCCCCn2c(-c3nc4cc(C(=O)N[C@H]5CNCC[C@@H]5F)c(F)cc4n3CCOc3ccccc3)cc3ccc1nc32 [Example 429] | 68 nM
16 | COC(C)Cn1c(-c2cc3ccc4nc3n2CCCCC[C@@H]2C[C@H]2C(=O)N[C@@H]4C)nc2cc(C(=O)N[C@H]3CNCC[C@@H]3F)c(F)cc21 (stereo partly shown) [Example 430, 6-fluoro-~{N}-[(3~{S},4~{S})-4-fluoro-3-piperidyl]-1-(2-methoxypropyl)-2-[(2~{R},5~{R},7~{R})-2-methyl-4-oxo-3,13,19-triazatetracyclo[11.5.2.0^{5,7}.0^{16,20}]icosa-1(19),14,16(20),17-tetraen-14-yl]benzimidazole-5-carboxamide] | 44 nM
17 | COCCn1c(-c2cc3ccc4nc3n2CCCCC[C@@H]2C[C@H]2C(=O)N[C@@H]4C)nc2cc(C(=O)N[C@H]3CNCC[C@@H]3F)cc(OC)c21 [Example 431, ~{N}-[(3~{S},4~{S})-4-fluoro-3-piperidyl]-7-methoxy-1-(2-methoxyethyl)-2-[(2~{R},5~{R},7~{R})-2-methyl-4-oxo-3,13,19-triazatetracyclo[11.5.2.0^{5,7}.0^{16,20}]icosa-1(19),14,16(20),17-tetraen-14-yl]benzimidazole-5-carboxamide] | 41 nM
18 | COCCn1c(-c2cc3ccc4nc3n2CCCCC[C@@H]2C[C@H]2C(=O)N[C@@H]4C)nc2cc(C(=O)N3CC[C@@H](OC)[C@@H](N)C3)cc(OC)c21 [Example 432, (2~{R},5~{R},7~{R})-14-[5-[(3~{S},4~{R})-3-amino-4-methoxy-piperidine-1-carbonyl]-7-methoxy-1-(2-methoxyethyl)benzimidazol-2-yl]-2-methyl-3,13,19-triazatetracyclo[11.5.2.0^{5,7}.0^{16,20}] icosa-1(19),14,16(20),17-tetraen-4-one] | 161 nM
19 | COCCn1c(-c2cc3ccc4nc3n2CCCCC[C@@H]2C[C@H]2C(=O)N[C@@H]4C)nc2cc(C(=O)N3CCC[C@@H](N)C3)cc(OC)c21 [Example 433, (2~{R},5~{R},7~{R})-14-[5-[(3~{R})-3-aminopiperidine-1-carbonyl]-7-methoxy-1-(2-methoxyethyl)benzimidazol-2-yl]-2-methyl-3,13,19-triazatetracyclo[11.5.2.0^{5,7}.0^{16,20}] icosa-1(19),14,16(20),17-tetraen-4-one] | 46 nM
